What was measured:
[1] = system: Bletilla striata; assay: Growth and bulb formation of Bletilla striata seedlings in tissue culture; assay type: in vivo; conditions: for growth when the concentration added to the medium was increased: increased (high) concentration in medium
Method: Seedling plants of Bletilla striata obtained by sterile sowing were used in an experiment.
As for the Bletilla striata, by using ½ strength MS medium supplemented with D-psicose, D-allose, D-glucose or D-frucose at a concentration of from 0.005% to 0.05% (w/v), the seedling plants were aseptically transplanted on Feb. 27, 2003, and then, cultivation was carried out under the same conditions as those of the strawberry in Example 3. Then, on Jun. 30, 2003, a survey was carried out with regard to the growth conditions of aerial part and underground part, the number of buds, the ratio of bulb formation, the bulb size and the like.

[2] = system: strawberry plant (variety: “smile ruby”); assay: Growth of strawberry seedlings in tissue culture medium with sugar; assay type: in vivo; conditions: for Underground part weight / Number of lateral buds / Aerial part weight / Root length: 0.1% (w/v) in medium; for Underground part weight: without addition 0.5; for Number of lateral buds: without addition 0.6; for Aerial part weight: without addition 1.8; for Root length: without addition 8.7; for Plant length: 0.1% (w/v) in ½ strength MS medium, without addition 3.0
Method: Seedlings of a strawberry plant (variety: “smile ruby”) obtained by meristem culture under sterile conditions were used in an experiment.
As for the strawberry, by using ½ strength MS medium supplemented with 0.1% (w/v) D-psicose or D-glucose, the seedling plants were aseptically transplanted on Oct. 14, 2003, and then, cultivation was carried out in a culture chamber at 25° C. and 5,000 Lux (12-hour day length). Then, on Jan. 20, 2004, a survey was carried out with regard to the growth conditions of aerial part and underground part, the number of lateral buds and the like.

[3] = system: Primula; assay: Drying stress of Primula after foliar spraying; assay type: in vivo; conditions: foliar spraying of 0.2% (w/v) solution
Method: By using Primula, an effect of spraying D-psicose on a drying stress was examined. By using commercially available Primula planted in a pot, foliar spraying of water, a 0.2% (w/v) D-glucose solution or a 0.2% (w/v) D-psicose solution was carried out on the whole plant. After irrigation was sufficiently carried out from the lower part of the pot, the plant was left in a condition that no irrigation was carried out, and a wilted condition thereof was observed.

[4] = system: Cymbidium; assay: Growth of Cymbidium flask seedlings in tissue culture; assay type: in vivo; conditions: 0.005% in MS medium; for Number of lateral buds: non 0; for Aerial part weight: non 2.1; for Underground part weight: non 3.8; for Number of roots: non 10.8
Excerpt: Flask seedlings of Phalaenopsis orchid and Cymbidium obtained by tissue culture were used in an experiment.
As for Cymbidium, in the same manner as the above Phalaenopsis orchid, MS medium supplemented with D-psicose, D-glucose, D-fructose or D-allose was used, and the flask seedlings were aseptically transplanted on Oct. 4, 2004. At this time, 4 or 5 leaves and 2 roots were left and the rest of them were cut off using a knife. As for the number of seedlings, 4 seedlings were used for 1 test plot, and glass bottles with a capacity of 900 ml and having a hole with a diameter of about 1 cm for preventing dew condensation made in the upper region was used as culture containers. The cultivation was carried out in a culture chamber at 25° C. and 5,000 Lux (12-hour day length) Then, on Feb. 1, 2005, a survey was carried out with regard to the growth conditions of aerial part and underground part, the number of roots and the number of lateral buds. The results are shown in Table 9 (effect of addition of rare sugar on the growth of seedlings of Cymbidium).

[5] = system: cherry tomato plant “petite”; assay: Hydroponic growth of cherry tomato with 0.05 or 0.5 mM sugar, 40 days; assay type: in vivo; conditions: until 40 days; for stem length, rank among 7 treated plots: 0.05 mM
Method: Further, on Dec. 18, 2003, a cherry tomato plant “petite” was transplanted for permanent planting to a hydroponic apparatus, and a total of 7 treated plots in which a plot without addition was added to 6 treated plots with the use of a nutrient solution supplemented with 0.05 mM or 0.5 mM D-psicose, D-fructose or mannitol were prepared. A survey was carried out with regard to the growth until 40 days after the permanent planting. As a result, the stem length was the shortest in the cases of 0.05 mM D-psicose and 0.05 mM D-fructose. Although a significant difference in the stem diameter was not observed among treated plots, however, a tendency was observed that the stem was slightly thinner in the treated plot of any of the sugars at a high concentration. A significant difference in the number of leaves was not observed among treated plots.

[6] = system: strawberry plant (variety: “smile ruby”); assay: Growth of strawberry seedlings in tissue culture medium with sugar; assay type: in vivo; conditions: increased (high) concentration in medium
[7] = system: Fusarium oxysporum, Glomerella cingulata, Verticillium dahliae and Botrytlis cinerea; assay: Mycelial elongation of plant pathogenic bacteria on agar with rare sugar; assay type: cell-based; conditions: 0.05% (w/v) in agar medium, 23° C., 7 days
Method: By using as targets, Fusarium oxysporum, Glomerella cingulata, Verticillium dahliae and Botrytlis cinerea, which are typical plant pathogenic bacteria, an effect of a rare sugar on mycelial elongation was examined.
As the test bacterial strains, IFO 31213 strain, IFO 6425 strain, IFO 9765 strain and IFO 9760 strain were used.
After the cultivation, the length of the extending mycelium was measured.

[8] = system: cherry tomato plant “mini carol”; assay: Hydroponic growth of cherry tomato with 0.05 or 0.5 mM sugar, 10 days; assay type: in vivo
Method: Subsequently, a cherry tomato plant “mini carol” was transplanted for permanent planting to a hydroponic apparatus, and a total of 7 treated plots in which a plot without addition (control plot) was added to 6 treated plots with the use of a nutrient solution supplemented with 0.05 mM or 0.5 mM D-psicose, D-fructose or mannitol were prepared. A survey was carried out with regard to the growth at 10 days after the permanent planting. […] The stem diameter was the smallest in the case of 0.5 mM D-psicose. The number of leaves was the smallest in the case of 0.5 mM D-psicose and 0.5 mM mannitol. The root length was the smallest in the case of 0.5 mM psicose.

O=C[C@H](O)[C@@H](O)[C@H](O)[C@H](O)CO [D-glucose, reference compound]
Aerial part weight ([1]; sugar 0.005% in medium): 0.15 g
Bulb size ([1]; sugar 0.005% in medium): 5.1 mm
Maximum plant length ([1]; sugar 0.005% in medium): 7.3 cm
Maximum root length ([1]; sugar 0.005% in medium): 4.9 cm
Number of buds ([1]; sugar 0.005% in medium): 3.7
Number of leaves ([1]; sugar 0.005% in medium): 4.1
Ratio of bulb formation ([1]; sugar 0.005% in medium): 37%
Underground part weight ([1]; sugar 0.005% in medium): 0.13 g
Aerial part weight ([1]; sugar 0.02% in medium): 0.20 g
Bulb size ([1]; sugar 0.02% in medium): 5.7 mm
Maximum plant length ([1]; sugar 0.02% in medium): 7.2 cm
Maximum root length ([1]; sugar 0.02% in medium): 5.1 cm
Number of buds ([1]; sugar 0.02% in medium): 3.4
Number of leaves ([1]; sugar 0.02% in medium): 3.9
Ratio of bulb formation ([1]; sugar 0.02% in medium): 59%
Underground part weight ([1]; sugar 0.02% in medium): 0.18 g
Aerial part weight ([1]; sugar 0.05% in medium): 0.18 g
Bulb size ([1]; sugar 0.05% in medium): 5.2 mm
Maximum plant length ([1]; sugar 0.05% in medium): 6.5 cm
Maximum root length ([1]; sugar 0.05% in medium): 6.1 cm
Number of buds ([1]; sugar 0.05% in medium): 3.4
Number of leaves ([1]; sugar 0.05% in medium): 4.0
Ratio of bulb formation ([1]; sugar 0.05% in medium): 45%
Underground part weight ([1]; sugar 0.05% in medium): 0.14 g
Underground part weight [2]: 1.2 g
Number of lateral buds [2]: 1.0
Aerial part weight [2]: 3.0 g
Root length [2]: 8.7 cm
Plant length [2]: 4.3 cm
time until wilt of the whole plant without irrigation [3]: one day
Number of lateral buds [4]: 0 buds
Aerial part weight [4]: 1.9 g
Underground part weight [4]: 2.9 g
Number of roots [4]: 9.5 roots

O=C(CO)[C@H](O)[C@H](O)[C@H](O)CO [D-psicose]
stem length, rank among 7 treated plots [5]: the shortest
underground part weight, rank among 7 treated plots ([5]; 0.5 mM): the smallest
growth when the concentration added to the medium was increased [1]: the growth thereof was delayed
Aerial part weight ([1]; sugar 0.005% in medium): 0.24 g
Bulb size ([1]; sugar 0.005% in medium): 6.2 mm
Maximum plant length ([1]; sugar 0.005% in medium): 9.3 cm
Maximum root length ([1]; sugar 0.005% in medium): 4.4 cm
Number of buds ([1]; sugar 0.005% in medium): 4.1
Number of leaves ([1]; sugar 0.005% in medium): 3.9
Ratio of bulb formation ([1]; sugar 0.005% in medium): 45%
Underground part weight ([1]; sugar 0.005% in medium): 0.26 g
Aerial part weight ([1]; sugar 0.02% in medium): 0.28 g
Bulb size ([1]; sugar 0.02% in medium): 5.6 mm
Maximum plant length ([1]; sugar 0.02% in medium): 9.9 cm
Maximum root length ([1]; sugar 0.02% in medium): 4.8 cm
Number of buds ([1]; sugar 0.02% in medium): 3.3
Number of leaves ([1]; sugar 0.02% in medium): 3.9
Ratio of bulb formation ([1]; sugar 0.02% in medium): 65%
Underground part weight ([1]; sugar 0.02% in medium): 0.22 g
Aerial part weight ([1]; sugar 0.05% in medium): 0.20 g
Bulb size ([1]; sugar 0.05% in medium): 5.1 mm
Maximum plant length ([1]; sugar 0.05% in medium): 7.3 cm
Maximum root length ([1]; sugar 0.05% in medium): 5.3 cm
Number of buds ([1]; sugar 0.05% in medium): 4.0
Number of leaves ([1]; sugar 0.05% in medium): 3.9
Ratio of bulb formation ([1]; sugar 0.05% in medium): 67%
Underground part weight ([1]; sugar 0.05% in medium): 0.13 g
growth when the concentration added to the medium was increased [6]: the growth thereof was delayed
Underground part weight [2]: 1.9 g
Number of lateral buds [2]: 1.3
Aerial part weight [2]: 3.1 g
Root length [2]: 7.2 cm
Plant length [2]: 4.5 cm
time until wilt of the whole plant without irrigation [3]: 2 days
inhibitory effect on mycelial elongation [7]: has an effect on inhibiting mycelial elongation
stem length, rank among 7 treated plots ([8]; 0.05 mM): the second longest
fresh and dry aerial part weights, rank among 7 treated plots ([8]; 0.5 mM): the smallest
number of leaves, rank among 7 treated plots ([8]; 0.5 mM): the smallest
root length, rank among 7 treated plots ([8]; 0.5 mM): the smallest
stem diameter, rank among 7 treated plots ([8]; 0.5 mM): the smallest
stem length, rank among 7 treated plots ([8]; 0.5 mM): the shortest
Number of lateral buds [4]: 0.5 buds
Aerial part weight [4]: 2.0 g
Underground part weight [4]: 4.1 g
Number of roots [4]: 10.8 roots

O=C(CO)[C@@H](O)[C@H](O)[C@H](O)CO [D-fructose, reference compound]
stem length, rank among 7 treated plots [5]: the shortest
Aerial part weight ([1]; sugar 0.005% in medium): 0.16 g
Bulb size ([1]; sugar 0.005% in medium): 5.2 mm
Maximum plant length ([1]; sugar 0.005% in medium): 6.5 cm
Maximum root length ([1]; sugar 0.005% in medium): 4.6 cm
Number of buds ([1]; sugar 0.005% in medium): 3.7
Number of leaves ([1]; sugar 0.005% in medium): 3.5
Ratio of bulb formation ([1]; sugar 0.005% in medium): 44%
Underground part weight ([1]; sugar 0.005% in medium): 0.15 g
Aerial part weight ([1]; sugar 0.02% in medium): 0.19 g
Bulb size ([1]; sugar 0.02% in medium): 4.5 mm
Maximum plant length ([1]; sugar 0.02% in medium): 6.6 cm
Maximum root length ([1]; sugar 0.02% in medium): 5.1 cm
Number of buds ([1]; sugar 0.02% in medium): 3.3
Number of leaves ([1]; sugar 0.02% in medium): 4.6
Ratio of bulb formation ([1]; sugar 0.02% in medium): 67%
Underground part weight ([1]; sugar 0.02% in medium): 0.14 g
Aerial part weight ([1]; sugar 0.05% in medium): 0.19 g
Bulb size ([1]; sugar 0.05% in medium): 4.7 mm
Maximum plant length ([1]; sugar 0.05% in medium): 7.3 cm
Maximum root length ([1]; sugar 0.05% in medium): 4.1 cm
Number of buds ([1]; sugar 0.05% in medium): 3.3
Number of leaves ([1]; sugar 0.05% in medium): 4.0
Ratio of bulb formation ([1]; sugar 0.05% in medium): 69%
Underground part weight ([1]; sugar 0.05% in medium): 0.10 g
stem length, rank among 7 treated plots ([8]; 0.5 mM): the longest
Number of lateral buds [4]: 0 buds
Aerial part weight [4]: 2.0 g
Underground part weight [4]: 3.8 g
Number of roots [4]: 10.0 roots

O=C[C@H](O)[C@H](O)[C@H](O)[C@H](O)CO [D-allose]
growth when the concentration added to the medium was increased [1]: the growth thereof was delayed
Aerial part weight ([1]; sugar 0.005% in medium): 0.19 g
Bulb size ([1]; sugar 0.005% in medium): 4.5 mm
Maximum plant length ([1]; sugar 0.005% in medium): 7.6 cm
Maximum root length ([1]; sugar 0.005% in medium): 4.2 cm
Number of buds ([1]; sugar 0.005% in medium): 3.4
Number of leaves ([1]; sugar 0.005% in medium): 4.2
Ratio of bulb formation ([1]; sugar 0.005% in medium): 84%
Underground part weight ([1]; sugar 0.005% in medium): 0.10 g
Aerial part weight ([1]; sugar 0.02% in medium): 0.19 g
Bulb size ([1]; sugar 0.02% in medium): 4.2 mm
Maximum plant length ([1]; sugar 0.02% in medium): 7.5 cm
Maximum root length ([1]; sugar 0.02% in medium): 4.1 cm
Number of buds ([1]; sugar 0.02% in medium): 3.6
Number of leaves ([1]; sugar 0.02% in medium): 3.9
Ratio of bulb formation ([1]; sugar 0.02% in medium): 85%
Underground part weight ([1]; sugar 0.02% in medium): 0.12 g
Aerial part weight ([1]; sugar 0.05% in medium): 0.25 g
Bulb size ([1]; sugar 0.05% in medium): 4.9 mm
Maximum plant length ([1]; sugar 0.05% in medium): 7.7 cm
Maximum root length ([1]; sugar 0.05% in medium): 4.2 cm
Number of buds ([1]; sugar 0.05% in medium): 2.7
Number of leaves ([1]; sugar 0.05% in medium): 4.3
Ratio of bulb formation ([1]; sugar 0.05% in medium): 85%
Underground part weight ([1]; sugar 0.05% in medium): 0.12 g
growth when the concentration added to the medium was increased [6]: the growth thereof was delayed
inhibitory effect on mycelial elongation [7]: has an effect on inhibiting mycelial elongation
Number of lateral buds [4]: 3.8 buds
Aerial part weight [4]: 2.7 g
Underground part weight [4]: 4.0 g
Number of roots [4]: 12.8 roots
